What was measured:
Assay type in all cases: cell-based
GIRK1/2 [1] = molecular target: T1, GIRK1/2 (Homo sapiens, UniProt P48051+P48549); assay: Thallium flux assay protocol (Examples 2 and 3), GIRK1/GIRK2 HEK-293 cells; design: expressed in transfected cells; host or cells: HEK-293; settings: for GIRK1/2 efficacy (activator): standardized to 2 (ML297) = 100%; for EC50: triplicate determinations
T1 sequence (P48549 1-501): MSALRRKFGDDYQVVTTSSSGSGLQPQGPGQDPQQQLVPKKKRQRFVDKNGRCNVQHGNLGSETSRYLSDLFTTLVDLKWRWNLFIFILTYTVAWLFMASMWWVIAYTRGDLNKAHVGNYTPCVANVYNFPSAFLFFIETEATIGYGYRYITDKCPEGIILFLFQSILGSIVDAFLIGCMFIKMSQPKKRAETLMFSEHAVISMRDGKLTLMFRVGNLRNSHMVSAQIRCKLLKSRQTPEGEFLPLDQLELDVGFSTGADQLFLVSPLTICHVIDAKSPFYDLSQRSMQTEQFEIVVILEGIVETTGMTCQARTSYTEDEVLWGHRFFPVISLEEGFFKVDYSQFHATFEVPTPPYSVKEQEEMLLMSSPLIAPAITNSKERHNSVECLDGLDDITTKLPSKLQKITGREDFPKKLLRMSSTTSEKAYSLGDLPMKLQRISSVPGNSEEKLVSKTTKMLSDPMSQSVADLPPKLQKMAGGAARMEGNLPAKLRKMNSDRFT
T1 sequence (P48051 1-423): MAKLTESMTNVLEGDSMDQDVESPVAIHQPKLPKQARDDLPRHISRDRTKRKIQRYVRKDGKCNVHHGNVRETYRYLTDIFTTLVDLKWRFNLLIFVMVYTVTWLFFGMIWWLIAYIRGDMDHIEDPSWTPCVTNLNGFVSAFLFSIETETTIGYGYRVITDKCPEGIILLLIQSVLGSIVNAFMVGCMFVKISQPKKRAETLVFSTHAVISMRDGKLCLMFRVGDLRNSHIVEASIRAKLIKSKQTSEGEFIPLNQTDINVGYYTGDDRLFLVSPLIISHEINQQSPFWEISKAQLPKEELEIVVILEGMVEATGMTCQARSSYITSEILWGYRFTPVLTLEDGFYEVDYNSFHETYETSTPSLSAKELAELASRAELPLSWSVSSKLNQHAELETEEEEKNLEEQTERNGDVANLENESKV
Protocol: Compounds were dissolved in DMSO, transferred to 384-well polypropylene plates, and serially diluted in DMSO using and Agilent Bravo (11-points, threefold dilutions). Serially diluted plates were dispensed to daughter plates using a Labcyte Echo555 and diluted to twofold over their target assay concentration with 20 mM HEPES-buffered (pH 7.4) Hanks Balanced Salt Solution (HBSS), hereafter referred to as Assay Buffer, using a Thermo Fisher Combi. Twenty-thousand HEK-293 cells/well stably transfected with the ion channel subunits of interest (e.g., GIRK1/GIRK2, GIRK1/GIRK4) were plated into 384-well, black-walled, clear-bottom, amine-coated coated plates in 20 LL/well alpha-minimal essential medium (MEM) supplemented with 10% (v/v) fetal bovine serum and incubated overnight in a 5% CO2 incubator at 37° C. Cell culture medium was removed from cell plates and replaced with 20 LL/well Assay Buffer. Twenty microliters/well of 0.5 LM of the thallium-sensitive dye, Thallos-AM (TEFlabs, Austin Tex.) in Assay Buffer was added to cell plates. Cell plates were incubated for 60 min at room temperature and then dye-loading solution was removed from cell plates and replaced with 20 LL/well Assay Buffer. Dye loaded and washed cell plates were transferred to a Hamamatsu FDSS 6000 and a double-addition protocol was initiated. After 10s, 20 LL/well of 20 LM test compound in 0.2% DMSO and Assay Buffer was added. After 4 min 10 LL/well of a 5× sodium bicarbonate-based thallium stimulus buffer (20 mM HEPES pH 7.4, 135 mM NaHCO3, 2 mM CaSO4, 1 mM MgSO4, 5 mM glucose, 12 mM Tl2SO4) was added and 2 more minutes of data collection followed. Fluorescence data were collected at 1 Hz. Data analysis: Waveform signals (fluorescence intensity vs time normalized by dividing each fluorescence value (F) by the initial fluorescence value for each trace (F0)) were reduced to single values by subtracting the average normalized waveform from vehicle control wells from each wave on the plate followed by obtaining the slope of the change in fluorescence immediately after the addition of the thallium stimulus. […] Curve fits for normalized slope values were obtained using a four-parameter logistic equation in the Excel add-in, XLfit.

GIRK1/4 = molecular target: T2, GIRK1/4 (Homo sapiens, UniProt P48544+P48549); assay: Thallium flux assay protocol (Examples 2 and 3), GIRK1/GIRK4 HEK-293 cells; settings: for GIRK1/4 efficacy (activator): standardized to 2 (ML297) = 100%; for EC50: triplicate determinations
T2 construct: expressed in transfected cells; host or cells: HEK-293
T2 sequence (P48549 1-501): T1 sequence (P48549 1-501)
T2 sequence (P48544 1-419): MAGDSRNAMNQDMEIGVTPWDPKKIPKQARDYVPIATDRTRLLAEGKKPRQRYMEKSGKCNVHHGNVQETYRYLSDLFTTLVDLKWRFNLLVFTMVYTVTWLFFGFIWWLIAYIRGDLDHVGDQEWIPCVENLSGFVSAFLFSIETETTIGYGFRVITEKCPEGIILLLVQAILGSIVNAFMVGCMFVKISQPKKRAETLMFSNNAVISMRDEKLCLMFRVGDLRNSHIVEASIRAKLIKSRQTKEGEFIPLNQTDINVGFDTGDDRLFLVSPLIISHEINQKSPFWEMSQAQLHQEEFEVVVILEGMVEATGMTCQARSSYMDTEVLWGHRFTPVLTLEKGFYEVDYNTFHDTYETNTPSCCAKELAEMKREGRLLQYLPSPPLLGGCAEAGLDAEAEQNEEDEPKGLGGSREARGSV
Protocol: Compounds were dissolved in DMSO, transferred to 384-well polypropylene plates, and serially diluted in DMSO using and Agilent Bravo (11-points, threefold dilutions). Serially diluted plates were dispensed to daughter plates using a Labcyte Echo555 and diluted to twofold over their target assay concentration with 20 mM HEPES-buffered (pH 7.4) Hanks Balanced Salt Solution (HBSS), hereafter referred to as Assay Buffer, using a Thermo Fisher Combi. Twenty-thousand HEK-293 cells/well stably transfected with the ion channel subunits of interest (e.g., GIRK1/GIRK2, GIRK1/GIRK4) were plated into 384-well, black-walled, clear-bottom, amine-coated coated plates in 20 LL/well alpha-minimal essential medium (MEM) supplemented with 10% (v/v) fetal bovine serum and incubated overnight in a 5% CO2 incubator at 37° C. Cell culture medium was removed from cell plates and replaced with 20 LL/well Assay Buffer. Twenty microliters/well of 0.5 LM of the thallium-sensitive dye, Thallos-AM (TEFlabs, Austin Tex.) in Assay Buffer was added to cell plates. Cell plates were incubated for 60 min at room temperature and then dye-loading solution was removed from cell plates and replaced with 20 LL/well Assay Buffer. Dye loaded and washed cell plates were transferred to a Hamamatsu FDSS 6000 and a double-addition protocol was initiated. After 10s, 20 LL/well of 20 LM test compound in 0.2% DMSO and Assay Buffer was added. After 4 min 10 LL/well of a 5× sodium bicarbonate-based thallium stimulus buffer (20 mM HEPES pH 7.4, 135 mM NaHCO3, 2 mM CaSO4, 1 mM MgSO4, 5 mM glucose, 12 mM Tl2SO4) was added and 2 more minutes of data collection followed. Fluorescence data were collected at 1 Hz. Data analysis: Waveform signals (fluorescence intensity vs time normalized by dividing each fluorescence value (F) by the initial fluorescence value for each trace (F0)) were reduced to single values by subtracting the average normalized waveform from vehicle control wells from each wave on the plate followed by obtaining the slope of the change in fluorescence immediately after the addition of the thallium stimulus. Slope values were normalized as a percentage of the slope obtained by the addition of a maximally effective concentration of the GIRK activator, ML297 (e.g., an efficacy value of 100% means that the compound's maximum apparent efficacy equals that of ML297). Curve fits for normalized slope values were obtained using a four-parameter logistic equation in the Excel add-in, XLfit.

GIRK1/2 [2] = molecular target: T1, GIRK1/2; assay: Thallium flux assay, HEK-293 cells expressing GIRK1/2; design: host or cells: HEK-293; settings: confirmed GIRK activator of GIRK1/2, HTS hit; read-out: EC50
Excerpt: Cell Line Construction and Cell Culture. HEK-293 cells co-expressing human GIRK1/2 and rat mGlu8 were generated as previously described (Niswender et al., 2008). A HEK-293 cell line (ATCC, Manassas, Va.) expressing human GIRK1 and human GIRK2 was constructed by transfecting HEK-293 cells with GIRK1 and GIRK2 (Origene, Rockville, Md.) cloned into the pBudCE4.1 vector (Life Technologies, Carlsbad, Calif.) using FuGene 6 (Promega, Madison, Wis.) transfection reagent. Unless otherwise noted, other ion channel-expressing cells were prepared by transfecting HEK-293 cells with individual or combinations of subunits: GIRK1, pCMV6-A-BSD; GIRK2, pCMV6-A-puro; GIRK3, pCMV6-A-hygro; GIRK4, pCMV6-A-AC; Kv7.4, pIRESneo3. The Kir2.1 and hERG-expressing cell lines were made by transfecting T-REx-293 cells (Life Technologies, Carlsbad, Calif.) with Kir2.1 and Kv11.1, respectively, cloned into pcDNA5TO. Monoclonal cell lines were produced by limiting-dilution cloning of antibiotic-resistant cells and functional selection using the thallium flux assay described below. Unless otherwise noted, cells were maintained in Minimal Essential Medium, Alpha Medium (Mediatech, Manassas, Va.) supplemented with 10% fetal bovine serum (Sigma-Aldrich, Saint Louis, Mo.) and GlutaGro (Mediatech, Manassas, Va.), referred to henceforth as cell culture medium. […]

Row | Compound | GIRK1/2 efficacy (activator) (GIRK1/2 [1]) | GIRK1/4 efficacy (activator) (GIRK1/4) | EC50 (GIRK1/4; Table 4, analogs 8) | also measured
1 | Cc1ccc(NC(=O)Cc2ccccc2Br)cc1S(=O)(=O)N(C)C [3a] | 108% | 114% | – | –
2 | Cc1cc(NC(=O)Nc2ccc(F)c(F)c2)n(Cc2ccccc2)n1 [5d] | 87% | 99% | – | –
3 | Cc1ccc(NC(=O)Nc2ccc(C(F)(F)F)cc2)cc1S(=O)(=O)N(C)C [6h] | 26% | – | – | EC50 (GIRK1/2 [1]; Table 3, analogs 6 (ureas)): 15 µM
4 | COc1ccc(OC)c(NC(=O)Nc2ccc(C)c(S(=O)(=O)N(C)C)c2)c1 [6i] | – | – | – | activity at GIRK1/2 (in words) (GIRK1/2 [1]): inactive; activity at GIRK1/4 (in words) (GIRK1/4): inactive
5 | Cc1ccc(NC(=O)Nc2cccc(C#N)c2)cc1S(=O)(=O)N(C)C [6j] | – | – | – | EC50 (GIRK1/4; Table 3, analogs 6 (ureas)): 3.3 µM
6 | CC(C)(C)c1cccc(NC(=O)Cc2ccccc2Cl)c1 [8b] | – | – | 2.7 µM | EC50 (GIRK1/2 [1]; Table 4, analogs 8): 5.9 µM
7 | O=C(Cc1ccccc1Cl)Nc1cccc(OC(F)F)c1 [8c] | – | – | 7.8 µM | –
8 | O=C(Cc1ccccc1Cl)Nc1cc(Cl)cc(C(F)(F)F)c1 [8d] | – | – | > 10 µM | EC50 (GIRK1/2 [1]; Table 4, analogs 8): > 10 µM
9 | O=C(Cc1ccccc1Cl)Nc1ccc(Cl)c(C(F)(F)F)c1 [8e] | – | 17% | 0.24 µM | activity at GIRK1/2 (in words) (GIRK1/2 [1]): inactive
10 | O=C(Cc1ccccc1Cl)Nc1cccc(Cl)c1 [8g] | – | 22% | 1.8 µM | activity at GIRK1/4 (in words) (GIRK1/4): selective, partial GIRK1/4 activators
11 | Cc1cccc(NC(=O)Cc2ccccc2Cl)c1 [8i] | – | – | – | activity at GIRK1/2 (in words) (GIRK1/2 [1]): inactive; activity at GIRK1/4 (in words) (GIRK1/4): inactive
12 | Cc1cc(NC(=O)Nc2ccccc2)n(-c2ccccc2)n1 [CID736191] | – | – | – | EC50 (GIRK1/2 [2]): ~1 µM
13 | Cc1ccc(NC(=O)Cc2ccccc2Cl)cc1S(=O)(=O)N(C)C [compound 3] | 110% | 104% | – | –

Source: patent US9067894B1, “Compound, composition, and method of activating GIRK potassium channel and use of same for treating conditions of interest” (Vanderbilt University, priority 2013, dated 2015)
